ChEMBL document CHEMBL4834457, “Discovery and optimization of selective RET inhibitors via scaffold hopping” (Bioorg Med Chem Lett, 2021)
pIC50: −log10 of the molar value. Active and inactive are the calls of the source. The rule behind the calls is not given here.

How the values were obtained:
[1] = Intrinsic clearance in mouse liver microsomes; type: ADME, Microsome; settings: read-out: CLH
[2] = Intrinsic clearance in human liver microsomes; type: ADME, Microsome; settings: read-out: CLH
[3] = Toxicity in mouse transplanted with mouse KIF5B-RET Ba/F3 cells assessed as change in body weight at 20 mg/kg, po […] for 10 days relative to control; type: organism-based, BaF3; settings: in vivo, 240 h, time 10 day
[4] = Drug level in tumor of mouse transplanted with mouse KIF5B-RET Ba/F3 cells at 10 mg/kg, po qd for 10 days measured after 8.5 hrs; type: ADME, organism-based, Neoplasm, BaF3; settings: in vivo, 240 h, time 10 day
[5] = molecular target: Proto-oncogene tyrosine-protein kinase receptor Ret (Homo sapiens, UniProt P07949, V804M); assay: Inhibition of RET V804M mutant (unknown origin)
Chain of Proto-oncogene tyrosine-protein kinase receptor Ret (Homo sapiens, UniProt P07949, V804M) (P07949 29-1114 V804M limits assumed): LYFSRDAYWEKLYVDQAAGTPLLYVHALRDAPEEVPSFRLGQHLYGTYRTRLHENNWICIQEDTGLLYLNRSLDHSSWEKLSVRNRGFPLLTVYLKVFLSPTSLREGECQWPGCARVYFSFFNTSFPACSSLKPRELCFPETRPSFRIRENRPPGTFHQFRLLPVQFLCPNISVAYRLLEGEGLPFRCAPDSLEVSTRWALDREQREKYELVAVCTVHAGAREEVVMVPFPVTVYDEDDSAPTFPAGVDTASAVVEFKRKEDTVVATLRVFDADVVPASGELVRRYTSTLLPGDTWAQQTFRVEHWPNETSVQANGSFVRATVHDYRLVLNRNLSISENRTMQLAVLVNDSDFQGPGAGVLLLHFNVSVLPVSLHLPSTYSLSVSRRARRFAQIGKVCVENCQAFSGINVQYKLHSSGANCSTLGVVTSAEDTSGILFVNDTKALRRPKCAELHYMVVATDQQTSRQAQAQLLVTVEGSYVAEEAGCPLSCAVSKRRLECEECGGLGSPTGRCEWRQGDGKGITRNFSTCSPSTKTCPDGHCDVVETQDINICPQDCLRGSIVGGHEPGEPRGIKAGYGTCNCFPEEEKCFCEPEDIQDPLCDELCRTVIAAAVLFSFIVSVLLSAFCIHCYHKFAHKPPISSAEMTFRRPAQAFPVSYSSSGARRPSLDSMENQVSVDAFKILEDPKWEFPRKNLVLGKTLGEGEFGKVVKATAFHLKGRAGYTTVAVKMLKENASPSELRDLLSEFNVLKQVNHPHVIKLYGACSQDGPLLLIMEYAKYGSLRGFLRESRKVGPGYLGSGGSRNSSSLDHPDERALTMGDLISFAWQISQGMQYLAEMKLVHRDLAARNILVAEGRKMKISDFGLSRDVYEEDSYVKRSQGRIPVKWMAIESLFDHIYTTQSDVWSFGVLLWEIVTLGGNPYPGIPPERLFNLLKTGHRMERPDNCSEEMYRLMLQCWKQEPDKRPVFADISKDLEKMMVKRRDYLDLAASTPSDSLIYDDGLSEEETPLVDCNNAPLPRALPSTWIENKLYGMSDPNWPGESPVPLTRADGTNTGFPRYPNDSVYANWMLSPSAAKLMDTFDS

[6] = test system: BaF3; assay: Antitumor activity against mouse KIF5B-RET BaF3 cells xenografted in nu/nu mouse assessed as tumour growth inhibition at 20 mg/kg, po qd for 10 days; type: functional, organism-based; settings: time 10.0 day
[7] = Clearance in mouse; type: ADME, organism-based; settings: in vivo
[8] = test system: BaF3; assay: Antiproliferative activity against mouse KIF5B-RET BaF3 cells by cell based assay; type: functional
[9] = molecular target: Proto-oncogene tyrosine-protein kinase receptor Ret (Homo sapiens, UniProt P07949, M918T); assay: Inhibition of RET M918T mutant (unknown origin)
Chain of Proto-oncogene tyrosine-protein kinase receptor Ret (Homo sapiens, UniProt P07949, M918T) (P07949 29-1114 M918T limits assumed): as the sequence (P07949 29-1114 V804M limits assumed) above, with M776V, M890T counted along it

[10] = AUC in mouse plasma at 10 mg/kg, po; type: ADME, organism-based; design: dose 10 mg/kg
[11] = Toxicity in mouse transplanted with mouse KIF5B-RET Ba/F3 cells assessed as change in body weight at 10 mg/kg, po […] for 10 days relative to control; type: organism-based, BaF3; settings: in vivo, 240 h, time 10 day
[12] = molecular target: Tyrosine-protein kinase JAK2 (Homo sapiens, UniProt O60674); assay: Inhibition of JAK2 (unknown origin)
Chain of Tyrosine-protein kinase JAK2 (O60674 whole entry): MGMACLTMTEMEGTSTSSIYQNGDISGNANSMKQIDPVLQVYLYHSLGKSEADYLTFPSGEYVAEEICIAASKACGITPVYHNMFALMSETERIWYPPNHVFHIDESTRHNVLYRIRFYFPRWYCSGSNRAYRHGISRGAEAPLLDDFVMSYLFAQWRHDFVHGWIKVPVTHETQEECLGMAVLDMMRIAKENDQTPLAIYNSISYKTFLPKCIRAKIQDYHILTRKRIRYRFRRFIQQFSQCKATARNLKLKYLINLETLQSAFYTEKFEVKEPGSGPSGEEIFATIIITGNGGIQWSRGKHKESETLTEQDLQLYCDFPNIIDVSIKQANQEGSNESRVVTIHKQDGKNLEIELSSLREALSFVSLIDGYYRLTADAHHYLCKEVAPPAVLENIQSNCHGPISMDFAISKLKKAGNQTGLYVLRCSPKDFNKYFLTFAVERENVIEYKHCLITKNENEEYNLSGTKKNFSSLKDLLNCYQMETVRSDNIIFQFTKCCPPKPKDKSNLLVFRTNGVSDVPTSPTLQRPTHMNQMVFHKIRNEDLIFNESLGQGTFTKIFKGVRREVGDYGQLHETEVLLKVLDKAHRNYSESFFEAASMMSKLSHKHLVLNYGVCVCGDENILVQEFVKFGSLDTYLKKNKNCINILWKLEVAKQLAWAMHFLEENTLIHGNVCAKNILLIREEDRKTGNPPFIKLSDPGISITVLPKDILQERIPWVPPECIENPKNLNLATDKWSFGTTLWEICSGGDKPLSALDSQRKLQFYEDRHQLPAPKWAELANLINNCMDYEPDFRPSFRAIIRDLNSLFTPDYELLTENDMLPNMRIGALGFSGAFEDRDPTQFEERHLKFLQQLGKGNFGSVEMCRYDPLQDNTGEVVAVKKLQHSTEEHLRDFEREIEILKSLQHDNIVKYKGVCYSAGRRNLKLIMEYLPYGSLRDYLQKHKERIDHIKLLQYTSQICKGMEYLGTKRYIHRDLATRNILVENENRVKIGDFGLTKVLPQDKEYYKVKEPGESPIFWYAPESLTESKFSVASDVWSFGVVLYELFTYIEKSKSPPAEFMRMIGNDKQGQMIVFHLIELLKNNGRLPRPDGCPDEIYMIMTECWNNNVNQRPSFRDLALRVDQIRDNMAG

[13] = molecular target: T1, Receptor-type tyrosine-protein kinase FLT3 (Homo sapiens, UniProt P36888); assay: Inhibition of FLT3 (unknown origin)
T1 sequence (P36888 whole entry): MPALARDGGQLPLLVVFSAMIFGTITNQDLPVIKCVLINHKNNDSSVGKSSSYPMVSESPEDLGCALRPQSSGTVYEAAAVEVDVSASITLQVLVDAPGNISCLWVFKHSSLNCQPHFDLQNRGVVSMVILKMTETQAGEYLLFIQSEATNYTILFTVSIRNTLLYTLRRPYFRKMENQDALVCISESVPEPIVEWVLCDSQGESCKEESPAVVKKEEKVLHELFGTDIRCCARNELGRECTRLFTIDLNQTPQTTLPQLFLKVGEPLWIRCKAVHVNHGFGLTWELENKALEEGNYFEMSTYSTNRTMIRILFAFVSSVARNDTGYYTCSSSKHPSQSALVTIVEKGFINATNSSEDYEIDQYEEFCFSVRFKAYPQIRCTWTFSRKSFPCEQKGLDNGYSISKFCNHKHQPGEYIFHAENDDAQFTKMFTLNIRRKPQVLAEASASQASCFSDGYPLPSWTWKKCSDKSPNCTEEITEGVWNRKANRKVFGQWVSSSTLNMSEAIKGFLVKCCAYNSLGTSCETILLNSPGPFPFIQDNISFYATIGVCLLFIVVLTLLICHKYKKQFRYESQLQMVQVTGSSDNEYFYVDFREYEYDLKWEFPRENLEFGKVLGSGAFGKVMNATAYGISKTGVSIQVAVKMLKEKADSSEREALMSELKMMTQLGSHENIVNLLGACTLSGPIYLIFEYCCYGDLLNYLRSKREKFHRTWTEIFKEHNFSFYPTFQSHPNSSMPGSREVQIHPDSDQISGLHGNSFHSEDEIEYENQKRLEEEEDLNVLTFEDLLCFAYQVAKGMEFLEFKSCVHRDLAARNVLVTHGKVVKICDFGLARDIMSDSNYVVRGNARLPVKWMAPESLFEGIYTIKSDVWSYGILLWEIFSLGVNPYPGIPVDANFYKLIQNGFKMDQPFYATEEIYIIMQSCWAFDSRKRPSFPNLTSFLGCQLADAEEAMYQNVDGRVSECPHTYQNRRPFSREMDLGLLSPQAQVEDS

[14] = Volume of distribution in mouse; type: ADME, organism-based; settings: in vivo
[15] = Drug level in plasma of mouse transplanted with mouse KIF5B-RET Ba/F3 cells at 10 mg/kg, po qd for 10 days measured after 8.5 hrs; type: ADME, organism-based, BaF3; settings: time 10 day
[16] = molecular target: Proto-oncogene tyrosine-protein kinase receptor Ret (Homo sapiens, UniProt P07949); assay: Inhibition of RET wild type (unknown origin)
Chain of Proto-oncogene tyrosine-protein kinase receptor Ret (Homo sapiens, UniProt P07949) (P07949 whole entry): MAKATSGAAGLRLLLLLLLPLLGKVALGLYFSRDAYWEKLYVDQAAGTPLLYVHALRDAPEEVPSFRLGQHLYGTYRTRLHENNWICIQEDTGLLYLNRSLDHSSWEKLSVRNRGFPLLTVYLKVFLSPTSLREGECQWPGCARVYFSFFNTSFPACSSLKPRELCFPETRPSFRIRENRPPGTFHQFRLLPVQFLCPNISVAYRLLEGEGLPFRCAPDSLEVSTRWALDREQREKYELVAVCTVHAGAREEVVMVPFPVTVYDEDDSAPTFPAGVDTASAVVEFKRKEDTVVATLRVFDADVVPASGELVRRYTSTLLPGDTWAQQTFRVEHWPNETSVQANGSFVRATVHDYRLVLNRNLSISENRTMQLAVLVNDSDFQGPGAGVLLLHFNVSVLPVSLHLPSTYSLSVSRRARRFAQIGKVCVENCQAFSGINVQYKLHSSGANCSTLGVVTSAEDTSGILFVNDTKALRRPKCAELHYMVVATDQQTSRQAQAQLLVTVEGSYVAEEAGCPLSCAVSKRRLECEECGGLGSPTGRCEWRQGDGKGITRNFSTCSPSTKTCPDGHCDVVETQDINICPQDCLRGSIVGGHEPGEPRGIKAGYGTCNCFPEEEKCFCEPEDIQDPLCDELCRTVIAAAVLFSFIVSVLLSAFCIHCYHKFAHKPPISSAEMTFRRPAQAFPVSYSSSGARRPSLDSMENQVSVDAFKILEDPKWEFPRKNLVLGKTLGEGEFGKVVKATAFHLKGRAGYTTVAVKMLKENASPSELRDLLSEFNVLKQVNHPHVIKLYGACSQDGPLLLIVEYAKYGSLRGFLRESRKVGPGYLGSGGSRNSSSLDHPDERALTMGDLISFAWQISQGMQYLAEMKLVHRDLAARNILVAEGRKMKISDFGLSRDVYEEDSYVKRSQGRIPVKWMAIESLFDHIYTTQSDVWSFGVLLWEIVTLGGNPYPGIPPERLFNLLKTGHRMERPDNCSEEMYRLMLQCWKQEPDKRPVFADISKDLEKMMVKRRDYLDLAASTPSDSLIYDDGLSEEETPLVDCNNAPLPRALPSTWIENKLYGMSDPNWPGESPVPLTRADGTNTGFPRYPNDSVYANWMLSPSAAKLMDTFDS

[17] = test system: BaF3; assay: Antitumor activity against mouse KIF5B-RET BaF3 cells xenografted in nu/nu mouse assessed as tumour growth inhibition at 10 mg/kg, po qd for 10 days; type: functional, organism-based; settings: time 10.0 day
[18] = Oral bioavailability in mouse; type: ADME, organism-based; settings: in vivo

| CLint scaled [1] [mL/min/kg] | CLint scaled [2] [mL/min/kg] | Drug uptake [4] [nmol/kg] | pIC50 [5] | clearance [7] [mL/min/kg] | pIC50 [8] | pIC50 [9] | AUC [10] [µM·h] | pIC50 [12] | pIC50 [13] | Vd [14] [L/kg] | concentration at 240 h [15] [µM] | pIC50 [16] | bioavailability [18] [%] | Compound | Activity [3] | Activity [6] | Activity [11] | Activity [17] |
| --- | --- | --- | --- | --- | --- | --- | --- | --- | --- | --- | --- | --- | --- | --- | --- | --- | --- | --- |
| < 38 | < 8.6 |  |  |  |  |  |  |  |  |  |  |  |  | Cc1cc(Nc2cc(C)[nH]n2)nc(C2CCC3(CCCN([C@@H](C)c4ccc(-n5cc(F)cn5)nc4)C3=O)CC2)n1 (some centres undefined) |  |  |  |  |
| 79 | 24.1 | 8100 | 8.71 | 6.6 | 7.72 | 9.05 | 27.7 | 8.36 | 7.51 | 1.5 | 3.94 | 8.89 | 59.7 | Cc1cc(Nc2cc(C)[nH]n2)nc(N2CCC3(CC2)OCCN([C@@H](C)c2ccc(-n4cc(F)cn4)nc2)C3=O)n1 | Non-Toxic | Active | Non-Toxic | Active |
| < 38 | < 8.6 | 2522 |  | 5 | 7.77 |  | 46.1 | 8.70 | 8.19 | 0.7 | 6.32 |  | 77.2 | CO[C@]1(C(=O)N[C@@H](C)c2ccc(-n3cc(F)cn3)nc2)CC[C@H](c2nc(C)cc(Nc3cc(C)[nH]n3)n2)CC1 [PRALSETINIB] |  |  | Non-Toxic | Active |
| 155 | 36.4 |  |  |  | 7.85 |  |  |  |  |  |  |  |  | Cc1cc(Nc2cc(C)[nH]n2)nc(N2CCC3(CCCN([C@@H](C)c4ccc(-n5cc(F)cn5)nc4)C3=O)CC2)n1 |  |  |  |  |
| 136 | 31.3 |  |  |  | 7.72 |  |  |  |  |  |  |  |  | Cc1cc(Nc2cc(C)[nH]n2)nc(N2CCC3(CCCN([C@@H](C)c4cnc(-n5cc(F)cn5)cn4)C3=O)CC2)n1 |  |  |  |  |
